Data published in patent US20230147040A1, “METHOD FOR PROGNOSIS PREDICTION OF SKIN CANCER AND USE THEREOF” (PUBLIC UNIVERSITY CORPORATION NAGOYA CITY UNIVERSITY, priority 2020, published 2023).

What was measured:
Type in all cases: in vivo
Merkel cell carcinoma = experiment: Clinical course of Merkel cell carcinoma cases under treatment
cutaneous angiosarcoma = experiment: Clinical course of cutaneous angiosarcoma cases under treatment; conditions: primary lesion in the head
G6PD = G6PD activity in patient serum (G6PD assay kit); conditions: Case 4, avelumab and IMRT in combination
Description: For 50 patient serum specimens of 19 cases, the G6PD activity was measured using a G6PD assay kit (Abeam, ab102529). The average activity value of the 50 specimens was 11.45 mU/ml.
The course of Merkel cell carcinoma was confirmed for the cases (Case 1 to 3) of 3 specimens having a particularly high G6PD activity (19 mU/ml or more) among the 50 specimens. In addition, the course of Merkel cell carcinoma was confirmed for a case (Case 4) having a decreased G6PD activity. In FIGS. 6 to 8 shown below, the vertical axis represents the G6PD activity (mU/ml), and the horizontal axis represents the period.

[1] = Case B, wPTX, then changed to eribulin

COc1cc([C@@H]2c3cc4c(cc3[C@@H](O[C@@H]3O[C@@H]5CO[C@@H](C)O[C@H]5[C@H](O)[C@H]3O)[C@H]3COC(=O)[C@H]23)OCO4)cc(OC)c1O [VP-16]
therapeutic effect (Merkel cell carcinoma; Case 1, stage IV, systemic lymph node metastasis after surgical resection and radiation therapy, combination therapy of CBDGB and VP-16): no therapeutic effect was observed

C=C1C[C@@H]2CC[C@@]34C[C@H]5O[C@H]6[C@@H](O3)[C@H]3O[C@H](CC[C@@H]3O[C@H]6[C@H]5O4)CC(=O)C[C@@H]3[C@@H](OC)[C@@H](C[C@H](O)CN)O[C@H]3C[C@H]3O[C@@H](CC[C@@H]1O2)C[C@@H](C)C3=C [eribulin]
clinical course (cutaneous angiosarcoma; [1]): pneumothorax (PD) was developed

CC(=O)O[C@@]12CO[C@@H]1C[C@H](O)[C@@]1(C)C(=O)[C@H](O)C3=C(C)[C@@H](OC(=O)[C@H](O)[C@@H](NC(=O)OC(C)(C)C)c4ccccc4)C[C@@](O)([C@@H](OC(=O)c4ccccc4)[C@H]21)C3(C)C [wDTX]
clinical course (cutaneous angiosarcoma; Case C, upon administration of wDTX): pneumothorax was developed

CC(=O)O[C@H]1C(=O)[C@@]2(C)[C@H]([C@H](OC(=O)c3ccccc3)[C@]3(O)C[C@H](OC(=O)[C@H](O)[C@@H](NC(=O)c4ccccc4)c4ccccc4)C(C)=C1C3(C)C)[C@]1(OC(C)=O)CO[C@@H]1C[C@@H]2O [wPTX]
clinical course (cutaneous angiosarcoma; Case A, wPTX therapy and radiation therapy): the performance status (PS) deteriorated
clinical course (cutaneous angiosarcoma; [1]): parotid lymph node metastasis was observed

avelumab
G6PD activity (G6PD): significantly reduced
clinical outcome (Merkel cell carcinoma; Case 1, stage IV, trial of avelumab after failed combination chemotherapy): death of current disease was caused after several months
PET/CT accumulation in right submandibular lymph node (Merkel cell carcinoma; Case 4, stage III, avelumab alone, after 3 months): enhancement of the accumulation was observed
clinical outcome (Merkel cell carcinoma; Case 4, stage III, avelumab in combination with IMRT): complete remission (CR)
